The values that follow come from patent publication US11046657B2, “Pyrimidinone derivatives and uses thereof to neutralize the biological activity of chemokines” (Centre National de la Recherche Scientifique (CNRS), priority 2016, dated 2021).

For series [1], the target named is T1, CXCR4-CXCL12 binding (Homo sapiens, UniProt P48061).
T1 construct: expressed in transfected cells
The series is described as follows: Inhibition of CXCL12-TR binding to CXCR4-GFP (FRET). As to conditions: 10 μM. On the procedure:
Study of the changes of CXCR4-CXCL12 binding was achieved by the energy transfer technique^10,11.
Binding of Texas red-labelled CXCL12 with CXCR4-GFP fused receptor^11 induces fluorescence resonance energy transfer (FRET), which can be monitored by the reduction of GFP fluorescence emission. The characterization of CXCL12 neutraligands was evaluated in two conditions, differing by the sequence of addition of molecules. Reduction of GFP fluorescence emission was more important when neutraligands were preincubated (30 min) […] prior to the addition to cells.
The CXCR4 antagonist, T134 (20 μM) was used as a control in both incubation protocols. Data obtained were consistent with a binding to the chemokine and not to its receptor. Consequently, all selected compounds are indeed CXCL12 chemokine neutraligands and behave as chalcone-4. The neutralizing properties of the compounds are thus confirmed.

Series [2] is described as follows: Solubility in assay media. The class given is physicochemical. As for the experimental part: (§1) Their solubility in assay media was evaluated. (2-Hydroxypropyl)-o-cyclodextrin (Cdx) was used as excipient because of its low toxicity and its capacity to increase bioavailability. […] The compound stability was evaluated in PBS only and in PBS/Cdx.
Series [3] is described as follows: Stability after 24 h. Type of series: physicochemical. As to conditions: monitored after 24 h. As for the experimental part: as §1
In series [4] the test system is Balb/c mice topically administered MC903. The series is described as follows: Murine model of atopic dermatitis induced by MC903. As to conditions: 350 μmol/kg topical in acetone/olive oil, 2 h before each MC903 application, D1-D13. The class given is in vivo, mouse. On the procedure: FIG. 2A. In vivo effect of a topical treatment with chalcone 4 and compound (1). Mouse ears were treated with MC903 (calcipotriol, 2 nmol/ear or 4 nmol/ear) or its solvent (ethanol EtOH) together with 350 μmol/kg chalcone 4 (upper row of images) or compound (1) (lower row of images) or solvent (acetone/olive oil 50/50, AOO). Chalcone 4 and compound (1) were dissolved in AOO and administered topically 2 h before each MC903 application. MC903 was dissolved in EtOH and topically applied.
FIG. 2B. Increase in ear thickness over time (D1-D13) was determined with a caliper on animals treated with MC903 or solvent (EtOH), and compound (1) or solvent (AOO) as described for FIG. 2A. Data points are means and bars are S.E.M. values of n=6 determinations.
FIG. 2C. Increase in ear thickness over time (D1-D13) was determined with a caliper on animals treated with MC903 or solvent (EtOH) and […] or solvent (AOO). Data points are means and bars are S.E.M. values of n=6 determinations.
The in vivo activity of compound (1) was tested in a murine model of atopic dermatitis as previously described (Zhang et al, Proc Nat Acad Si USA 2009, 106, 1536-41). Briefly, Balb/c mice were topically administered with a vitamin D analogue, MC903 (2 or 4 nmol/ear) every other day for 13 days. […]

The subject of series [5] is SuHx Wistar rats. The experiment in a line: SU-5416/Hypoxia rat model of pulmonary hypertension. The class given is in vivo. As to conditions: 100 mg/kg/day i.p.; for Pulmonary vascular remodeling: H&E and alpha-SMA staining of lung sections; for Total pulmonary vascular resistance (TPVR): curative protocol, vs vehicle-treated SuHx rats. As for the experimental part:
FIG. 6A: In vivo effect of chalcone-4 and compound (1) in the SU-5416 (20 mg/kg)/Hypoxia (SuHx) rat model of PH on total pulmonary vascular resistance, cardiac output and right ventricular hypertrophy. Male Wistar rats (100 g upon arrival in the laboratory; Janvier Labs, France) served as experimental subjects. SU-5416 (20 mg/kg) was injected subcutaneously and the rats were placed in normobaric hypoxia (10% FiO2) for 3 weeks for PH to develop, and were then left for 2 weeks in normoxia. Rats were treated either with chalcone-4 or compound (1) at a dose of 100 mg/kg i.p. as compared with vehicle-treated SuHx rats. In addition, a group of healthy rats with no PH were used as the control group (CTR). The total pulmonary vascular resistance (TPVR), cardiac output (CO), right ventricular hypertrophy (RVH) assessed by the Fulton index [right/(left+septum) ventricular weight] were obtained in CTR and SuHx rats treated with chalcone-4 and compound (1). The bar graph represents means SEM. *** p-value <0.001, **** p-value <0.0001 versus CTR rats. # p-value <0.05,### p-value <0.001 versus vehicle-treated SuHx rats.
The activity of compound (1) vs chalcone-4 was evaluated in an animal model of pulmonary hypertension (PH) (by convention, animal models are still referred to as having PH rather than PAH): the SU-5416 (20 mg/Kg)/Hypoxia rat model. Chalcone-4 and compound (1) (100 mg/kg/day) were prepared in carboxymethylcellulose (CMC 1% in saline) and administered I.P. Rats were treated for 3 weeks in a curative protocol, and were then left for 2 weeks in normoxia. An additional group of healthy rats with no PH was used as the control group (CTR).
PH was induced by a single subcutaneous injection of SU5416 (20 mg/kg) in Wistar rats, followed by a 3-week exposure to chronic hypoxia (10% FiO2). Right ventricular structure and function was assessed by echocardiography using the GE Vivid 9 ultrasound. Before treatment begins, echocardiography measurements of each rat have been performed to validate the presence of PH in animals (acceleration time/ejection time). Then, the rats were randomized by numbering the animals from 1 to 4 in each cage at the beginning of the study, and then looking at a random number table. Each rat has been treated by intraperitoneal administration. At the end of the treatment period, a right heart catheterization (RHC) was performed to determine the PH severity and the cardiac function.
Animals were anesthetized with isoflurane. A polyvinyl catheter was introduced into the right jugular vein and pushed through the right ventricle into the pulmonary artery. Cardiac output in rats was measured using the thermodilution method.
After measurement of hemodynamic parameters, the thorax was opened and the left lung immediately removed and frozen. The right lung was fixed in the distended state with formalin buffer. The right ventricular hypertrophy assessed by the Fulton index [weight ratio of right ventricle (RV) and (left ventricle (LV)+septum)] and the percentage of wall thickness [(2× medial wall thickness/external diameter)×100] and of muscularized vessels were determined as previously described^21.
Histological sections were stained with hematoxylin and eosin, and immunohistochemistry for alpha-smooth muscle actin was performed as previously described^1′. Images were taken with a microscope Nikon Eclipse 80i and NIS-Elements BR 2.30 software.

Setting [6] is: PBS with (2-hydroxypropyl)-cyclodextrin (Cdx) 10% w/w, aqueous with cosolvent or surfactant or cyclodextrin, PBS/Cdx (10% w/w), read-out: Solubility PBS/Cdx.
Where [7] appears, read: PBS, aqueous buffer, read-out: Solubility PBS.
Setting [8] is: vs SuHx rats treated with vehicle or chalcone-4.

Converted amounts (≈) assume the structure as drawn. “Also recorded” adds a separate entry of the source. Read-outs that look alike come from different tables or passages of the source.

T1 sequence (P48061 22-89 limits assumed): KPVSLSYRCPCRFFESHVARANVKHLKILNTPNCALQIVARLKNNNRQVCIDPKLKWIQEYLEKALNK

The inhibition is the relative decrease from the control value, in per cent. Low readings indicate little suppression, high ones strong suppression. For the molecule `COc1cc(/C=C/C(=O)c2ccc(Cl)cc2)ccc1O` [Chalcone-4, (E)-1-(4-Chlorophenyl)-3-(4-hydroxy-3-methoxyphenyl)prop-2-en-1-one, reference compound], the inhibition at 10 µM in series [1] (Table 3) was 96 ± 2%. In addition, the solubility in series [2] (setting [6]) was above 300 µM. In series [2] (setting [7]), the solubility came out at 9 µM (≈ 2.6 µg/mL). In series [3], the “Stability PBS/Cdx” value is on record as 100% and the “Stability PBS” value was found to be 100%. Moreover, the “Atopic response to MC903 (ear thickness)” value in series [4] is listed as “totally abolished the atopic response to MC903”. In series [5], the Pulmonary vascular remodeling result was “substantially attenuated the pulmonary vascular remodeling” and the “Total pulmonary vascular resistance (TPVR)” value is “substantial decrease”.

On to `COc1cc(-c2cc(-c3ccc(Cl)cc3)nc(=O)[nH]2)ccc1O` [compound (1), 4-(4-Chlorophenyl)-6-(4-hydroxy-3-methoxyphenyl)pyrimidin-2(1H)-one], for which the inhibition at 10 µM in series [1] (Table 2) stood at 92 ± 5%. In series [1] (Table 3), this molecule returned an inhibition at 10 µM of 76 ± 5%. The molecule further registered an inhibition at 10 µM in series [1] (Table 4) of 76 ± 5%. In addition, the solubility in series [2] (setting [6]) was above 5000 µM. In addition, the solubility in series [2] (setting [7]) is 36.4 µM (≈ 12 µg/mL). Further, the “Solubility compared with chalcone-4” value in series [2] (in words) is recorded as “better than the solubility of “chalcone-4”; also recorded: more soluble”. Moreover, in series [3], the “Stability PBS/Cdx” value was found to be 100% and the “Stability PBS” value is reported as 100%. The “Atopic response to MC903 (ear thickness)” value in series [4] is listed as “inhibits atopic dermatitis induced by MC903; also recorded: totally abolished the atopic response to MC903”. Also, in series [5], the Pulmonary vascular remodeling result is “substantially attenuated the pulmonary vascular remodeling” and the “Total pulmonary vascular resistance (TPVR)” value is listed as “substantial decrease”. In series [5] (setting [8]), the Cardiac output entry was “substantial increase” and the “Fulton index (right ventricular hypertrophy)” value is given as “significant decrease”.
